Assay results as given in ChEMBL document CHEMBL5625206, “Design, synthesis, and evaluation of novel pleuromutilin aryl acrylate derivatives as promising broad-spectrum antibiotics especially for combatting multi-drug resistant gram-negative bacteria” (Eur J Med Chem, 2023).
Converted amounts (≈) assume the structure as drawn. The source made the active and inactive calls. The rule behind the calls is not given here.

How the values were obtained:
[1] = tested on: Mesomycoplasma hyopneumoniae; experiment: Anti-mycoplasma activity against Mycoplasma hyopneumoniae LH-NCTC10130 assessed as bacterial growth inhibition incubated for 7 days; assay type: functional; conditions: Mesomycoplasma hyopneumoniae, LH-NCTC10130, 168 h; time 7 day; read-out: MIC
[2] = Toxicity in fasted male Sprague-Dawley rat assessed as relative spleen weight ratio at 331 mg/kg, IG measured for 14 days (reference value: 0.246 +/- 0.037); assay type: organism-based; conditions: in vivo, po, 336 h, time 14 day
Staphylococcus aureus [3] = experiment: Induction of cell damage in methicillin-resistant Staphylococcus aureus ATCC 33591 assessed as decrease in intracellular ATP concentration at MIC incubated for 30 mins by fluorescence based analysis relative to control; assay type: functional; design: scale not given: the % may be the effect or the level left; conditions: 0.5 h
[4] = Toxicity in fasted male Sprague-Dawley rat assessed as body weight at 500 mg/kg, IG measured on same day (reference value: 212.7 +/- 13.2 g); assay type: organism-based; conditions: in vivo, po
Staphylococcus aureus [5] = experiment: Antibacterial activity against Staphylococcus aureus ATCC 25923 assessed as bacterial growth inhibition incubated for 24 hrs by CLSI based broth microdilution method; assay type: functional
[6] = Toxicity in fasted male Sprague-Dawley rat assessed as relative liver weight ratio at 224 mg/kg, IG measured for 14 days (reference value: 3.616 +/- 0.286); assay type: organism-based; conditions: in vivo, po, 336 h, time 14 day
[7] = Toxicity in fasted male Sprague-Dawley rat assessed as animal growth rate at 331 mg/kg, IG measured for 14 days (reference value: 46.53 +/- 3.19 g); assay type: organism-based; conditions: in vivo, po, 336 h, time 14 day
[8] = Toxicity in fasted female Sprague-Dawley rat assessed as relative spleen weight ratio at 100 mg/kg, IG measured for 14 days (reference value: 0.223 +/- 0.019); assay type: organism-based; conditions: in vivo, po, 336 h, time 14 day
Escherichia coli [9] = experiment: Bactericidal activity against Escherichia coli ATCC 25922 assessed as reduction in colony count at MIC incubated for 24 hrs by time kill assay relative to control; assay type: functional
Escherichia coli [10] = experiment: Disruption of cell membrane integrity in Escherichia coli ATCC 25922 assessed as rough cell surface at MIC incubated for 4 hrs by FESEM analysis; assay type: functional, organism-based
Staphylococcus aureus [11] = experiment: Bactericidal activity against methicillin-resistant Staphylococcus aureus ATCC 33591 at MIC incubated for 24 hrs by time kill assay relative to control; assay type: functional
[12] = Toxicity in fasted male Sprague-Dawley rat assessed as body weight at 331 mg/kg, IG measured after 14 days (reference value: 311.2 +/- 13.6 g); assay type: organism-based; conditions: in vivo, po, 336 h, time 14 day
[13] = Toxicity in fasted male Sprague-Dawley rat assessed as relative lung weight ratio at 331 mg/kg, IG measured for 14 days (reference value: 0.437 +/- 0.064); assay type: organism-based; conditions: in vivo, po, 336 h, time 14 day
[14] = Toxicity in neutropenic Kunming mouse model infected with methicillin-resistant Staphylococcus aureus ATCC 33591 assessed as survival rate at 5 mg/kg, ip measured after 7 days relative to control; assay type: organism-based; conditions: in vivo, 168 h, time 7 day
[15] = Toxicity in fasted female Sprague-Dawley rat assessed as body weight at 100 mg/kg, IG measured after 14 days (reference value: 214.3 +/- 9.8 g); assay type: organism-based; conditions: in vivo, po, 336 h, time 14 day
[16] = Toxicity in fasted female Sprague-Dawley rat assessed as relative spleen weight ratio at 224 mg/kg, IG measured for 14 days (reference value: 0.223 +/- 0.019); assay type: organism-based; conditions: in vivo, po, 336 h, time 14 day
Escherichia coli [17] = experiment: Disruption of cell membrane integrity in Escherichia coli ATCC 25922 assessed as appearance of pores on cell membrane at 4 times MIC incubated for 4 hrs by FESEM analysis; assay type: functional, organism-based
[18] = tested on: Staphylococcus epidermidis; experiment: Antibacterial activity against Staphylococcus epidermidis ATCC 12228 assessed as bacterial growth inhibition incubated for 24 hrs by CLSI based broth microdilution method; assay type: functional
[19] = Toxicity in fasted female Sprague-Dawley rat assessed as body weight at 224 mg/kg, IG measured after 7 days (reference value: 188.2 +/- 9.2 g); assay type: organism-based; conditions: in vivo, po, 168 h, time 7 day
[20] = Toxicity in fasted female Sprague-Dawley rat assessed as relative spleen weight ratio at 500 mg/kg, IG measured for 14 days (reference value: 0.223 +/- 0.019); assay type: organism-based; conditions: in vivo, po, 336 h, time 14 day
[21] = Toxicity in fasted male Sprague-Dawley rat assessed as relative testis weight ratio at 148 mg/kg, IG measured for 14 days (reference value: 0.993 +/- 0.052); assay type: organism-based; conditions: in vivo, po, 336 h, time 14 day
[22] = Toxicity in fasted female Sprague-Dawley rat assessed as relative liver weight ratio at 100 mg/kg, IG measured for 14 days (reference value: 3.199 +/- 0.062); assay type: organism-based; conditions: in vivo, po, 336 h, time 14 day
[23] = Toxicity in fasted male Sprague-Dawley rat assessed as relative testis weight ratio at 331 mg/kg, IG measured for 14 days (reference value: 0.993 +/- 0.052); assay type: organism-based; conditions: in vivo, po, 336 h, time 14 day
[24] = Toxicity in fasted female Sprague-Dawley rat assessed as relative lung weight ratio at 148 mg/kg, IG measured for 14 days (reference value: 0.534 +/- 0025); assay type: organism-based; conditions: in vivo, po, 336 h, time 14 day
[25] = Toxicity in fasted female Sprague-Dawley rat assessed as relative heart weight ratio at 500 mg/kg, IG measured for 14 days (reference value: 0.429 +/- 0.016); assay type: organism-based; conditions: in vivo, po, 336 h, time 14 day
[26] = Toxicity in fasted male Sprague-Dawley rat assessed as animal growth rate at 148 mg/kg, IG measured for 14 days (reference value: 46.53 +/- 3.19 g); assay type: organism-based; conditions: in vivo, po, 336 h, time 14 day
[27] = Toxicity in fasted female Sprague-Dawley rat assessed as relative kidney weight ratio at 100 mg/kg, IG measured for 14 days (reference value: 0.802 +/- 0.031); assay type: organism-based; conditions: in vivo, po, 336 h, time 14 day
Staphylococcus aureus [28] = experiment: Induction of cell damage in methicillin-resistant Staphylococcus aureus ATCC 33591 assessed as fold increase in extracellular ATP concentration at 2 times MIC incubated for 30 mins by fluorescence based analysis relative to control; assay type: functional; conditions: 0.5 h
[29] = Toxicity in fasted male Sprague-Dawley rat assessed as relative heart weight ratio at 331 mg/kg, IG measured for 14 days (reference value: 0.396 +/- 0.043); assay type: organism-based; conditions: in vivo, po, 336 h, time 14 day
Staphylococcus aureus [30] = experiment: Induction of cell damage in methicillin-resistant Staphylococcus aureus ATCC 33591 assessed as decrease in intracellular ATP concentration at 2 times MIC incubated for 30 mins by fluorescence based analysis relative to control; assay type: functional; design: scale not given: the % may be the effect or the level left; conditions: 0.5 h
[31] = Toxicity in fasted male Sprague-Dawley rat assessed as body weight at 224 mg/kg, IG measured after 7 days (reference value: 260.5 +/- 12.7 g); assay type: organism-based; conditions: in vivo, po, 168 h, time 7 day
[32] = Toxicity in fasted male Sprague-Dawley rat assessed as relative heart weight ratio at 500 mg/kg, IG measured for 14 days (reference value: 0.396 +/- 0.043); assay type: organism-based; conditions: in vivo, po, 336 h, time 14 day
[33] = Toxicity in fasted female Sprague-Dawley rat assessed as relative kidney weight ratio at 148 mg/kg, IG measured for 14 days (reference value: 0.802 +/- 0.031); assay type: organism-based; conditions: in vivo, po, 336 h, time 14 day
Escherichia coli [34] = experiment: Induction of extracellular electrical conductivity in Escherichia coli ATCC 25922 at MIC incubated for 8 hrs relative to control; assay type: functional
[35] = Toxicity in fasted male Sprague-Dawley rat assessed as body weight at 148 mg/kg, IG measured after 14 days (reference value: 311.2 +/- 13.6 g); assay type: organism-based; conditions: in vivo, po, 336 h, time 14 day
Escherichia coli [36] = experiment: Inhibition of biofilm formation of Escherichia coli ATCC 25922 incubated for 24 hrs by crystal violet staining based analysis; assay type: functional, organism-based

For C=C[C@]1(C)C[C@@H](OC(=O)COC(=O)/C=C/c2ccc(N(C)C)cc2)[C@]2(C)[C@H](C)CC[C@]3(CCC(=O)[C@H]32)[C@@H](C)[C@@H]1O, which MIC [1] is on record?
Its MIC is 0.002 µg/mL (≈ 0.00363 µM).

What about the Ratio [2] of the same compound?
Its Ratio is 0.235.

And the Activity (Staphylococcus aureus [3])?
Its Activity is 57.98%.

What about the Activity [4] of the same compound?
The Activity was 208 g.

What about the MIC (Staphylococcus aureus [5]) of the same compound?
Its MIC is 1 µg/mL (≈ 1.81 µM).

What about the Ratio [6] of the same compound?
The Ratio was 3.699.

And the Activity [7]?
Its Activity is 40.48%.

What about the Ratio [8] of the same compound?
Its Ratio is 0.226.

What about the Activity (Escherichia coli [9]) of the same compound?
The Activity was 3.99 log10CFU/ml.

What about the Activity (Escherichia coli [10]) of the same compound?
The Activity was “Active”.

What about the Activity (Staphylococcus aureus [11]) of the same compound?
Its Activity is 48.55%.

What about the Activity [12] of the same compound?
Its Activity is 304.9 g.

And the Ratio [13]?
The Ratio was 0.397.

What about the Survival [14] of the same compound?
The Survival was 30%.

And the Activity [15]?
The Activity was 214.6 g.

And the Ratio [16]?
The Ratio was 0.249.

What about the Activity (Escherichia coli [17]) of the same compound?
The Activity was “Active”.

What about the MIC [18] of the same compound?
The MIC was 1 µg/mL (≈ 1.81 µM).

And the Activity [19]?
Its Activity is 191.2 g.

What about the Ratio [20] of the same compound?
Its Ratio is 0.23.

And the Ratio [21]?
The Ratio was 0.99.

And the Ratio [22]?
Its Ratio is 3.195.

And the Ratio [23]?
Its Ratio is 1.

What about the Ratio [24] of the same compound?
The Ratio was 0.494.

What about the Ratio [25] of the same compound?
The Ratio was 0.449.

And the Activity [26]?
The Activity was 45.63%.

What about the Ratio [27] of the same compound?
Its Ratio is 0.81.

What about the “fold change (FC)” value (Staphylococcus aureus [28]) of the same compound?
Its value is 3.21.

What about the Ratio [29] of the same compound?
The Ratio was 0.374.

What about the Activity (Staphylococcus aureus [30]) of the same compound?
Its Activity is 86.52%.

And the Activity [31]?
Its Activity is 257.1 g.

What about the Ratio [32] of the same compound?
Its Ratio is 0.376.

What about the Ratio [33] of the same compound?
Its Ratio is 0.818.

And the Activity (Escherichia coli [34])?
The Activity was 15.45%.

And the Activity [35]?
The Activity was 303.6 g.

What about the inhibition (Escherichia coli [36]) of the same compound?
The inhibition was “Dose-Dependent Effect”.
